{"source": "patent US20120045515A1", "about": "“HOLLOW SILICA PARTICLE WITH A POLYMER THEREON” (priority 2009, published 2012)", "key": {"[1]": {"test": "Saturated solubility of PTX in methanol", "format": "physicochemical", "conditions": "organic solvent or mixture, saturated solution in methanol"}, "[2]": {"test": "Release profile of paclitaxel by dialysis in 1×PBS buffer at 37° C., HPLC", "format": "physicochemical", "conditions": "after 330 h, 1×PBS buffer solution", "procedure": "In a typical process, 0.7 mg of paclitaxel loaded PEG-graft-hollow silica was dispersed in 3 ml of 1×PBS buffer solution under ultrasonication for 2 h at a temperature below 30° C. The solution was transferred into a dialysis tube with a molecular weight cutting of 10 000. The dialysis tube was placed into a conical flask containing 40 ml of 1×PBS buffer solution. The conical flask was kept in a water bath at 37° C. and was stirred at 100 rpm. The outside buffer solution was exchanged with a fresh buffer solution at a predetermined time interval to maintain a sink condition. The released paclitaxel was extracted from the drawn buffer solution using 4 ml of dichloromethane. After shaking and setting down, the dichloromethane solution was collected. After chloromethane was evaporated at room temperature, the solid reconstituted in 2 mL of acetonitrile/water (50:50; v/v) for HPLC measurement to determine PTX amounts.\nTo measure the release profile of free PTX, 2 mg of PTX was firstly dissolved in 4 mL methanol to get a solution of a concentration of 0.5 mg/mL. After ultrasonication for 40 min, 0.4 mL of the solution was taken out and was dried by evaporating methanol. The solid was dissolved in 3 mL of 1×PBS solution (pH 7.4), and the release profile was monitored."}, "U-87 MG cells": {"tested_on": "U-87 MG cells", "test": "In vitro cytotoxicity, MTT assay, in U-87 MG cells", "format": "cell-based", "conditions": "Homo sapiens, incubation for 72 h", "procedure": "(§1) Cytotoxicity of pure PTX, PEG-g-hollow silica vesicles, and PTX loaded PEG-g-hollow silica vesicles was evaluated in MCF-7 cell lines and U-87 MG cell lines. Viability of the cells was assessed by the standard thiazolyl blue [3-(4,5-dimethyliazolyl-2)-2,5-diphenyl tetrazolium bromide] (MTT) assay. This colorimetric assay allows determination of the number of viable cells through the metabolic activity of the cells.\n(§2) The cancer cells were seeded in 96-well plates with a seeding density 10,000 cells/well and were cultured in DMEM supplemented with 10% FBS and 1% penicillin/streptomycin solution in an incubator at 37° C., 5% CO2, and 95% relative humidity. The cells were allowed to adhere to the well bottom upon overnight incubation. Then the medium was replaced with the sample solutions of different concentrations. Meanwhile, wells containing only cell culture medium were prepared as untreated controls. At the predetermined time, the medium containing samples was aspirated and the wells were washed with 1×PBS solution for two times to removed non-internalized sample. […] The absorbance intensity of the solution was then quantified spectrophotometrically using a microplate reader (TECAN SpectraFluor Plus) at 570 nm. […]\n(§3) where Abssample was the absorbance for the cells treated with the samples, while Abscontrol was the absorbance for the untreated control cells. […]"}, "MCF-7 cells": {"tested_on": "MCF-7 cells", "test": "In vitro cytotoxicity, MTT assay, in MCF-7 cells", "format": "cell-based", "conditions": "Homo sapiens, MCF7, incubation for 72 h", "procedure": "as §1, §2, §3"}}, "data": [{"smiles": "CC(=O)O[C@H]1C(=O)[C@@]2(C)[C@H]([C@H](OC(=O)c3ccccc3)[C@]3(O)C[C@H](OC(=O)[C@H](O)[C@@H](NC(=O)c4ccccc4)c4ccccc4)C(C)=C1C3(C)C)[C@]1(OC(C)=O)CO[C@@H]1C[C@@H]2O", "note": "[free PTX, paclitaxel]", "values": [{"measurement": "solubility", "setting": "[1]", "value": 50, "unit": "mg/mL"}, {"measurement": "PTX released", "setting": "[2]", "value": 5, "unit": "%"}, {"measurement": "IC50", "setting": "U-87 MG cells", "value": 0.073, "unit": "µg/mL"}, {"measurement": "IC50", "setting": "MCF-7 cells", "value": 0.1, "unit": "µg/mL"}]}]}
